Results as given in ChEMBL document CHEMBL5725232, “Inhibitors of matrix metalloproteinases” (2016).

Columns and labels:
[1] = molecular target: 72 kDa type IV collagenase (Homo sapiens, UniProt P08253); experiment: (§1) Activity Assay: Stock solution of substrate (Mca-Lys-Pro-Leu-Gly-Leu-Dpa-Ala-Arg-NH2) was prepared in DMSO at a concentration of 6 mM. Assays were performed in an assay buffer (50 mM Tris pH 7.5, 300 mM NaCl, 10 uM ZnSO4, 5 mM CaCl2, 0.005% Brij-35). The final DMSO concentration in all assays was 1.0%. […] The assays were carried out at 37° C. The fluorescence changes, resulting from the substrate cleavage, were detected using excitation at 340 nm and emission wavelength of 405 nm using a Wallac 1420 Microplate Reader. The reaction mixtures were preincubated with the inhibitors for 30 minutes. The reactions were started by the addition of MMP substrate, and the fluorescence intensity changes were measured after 60 minutes. The obtained fluorescence values were normalized and % inhibition values calculated. Dose response curves were determined from 6 concentration points using three fold dilution steps, each concentration point was determined in dupllicate. IC50 values were calculated from the dose response curves.
Interstitial collagenase = molecular target: T1, Interstitial collagenase (Homo sapiens, UniProt P03956); experiment: as §1
T1 sequence (P03956 whole entry): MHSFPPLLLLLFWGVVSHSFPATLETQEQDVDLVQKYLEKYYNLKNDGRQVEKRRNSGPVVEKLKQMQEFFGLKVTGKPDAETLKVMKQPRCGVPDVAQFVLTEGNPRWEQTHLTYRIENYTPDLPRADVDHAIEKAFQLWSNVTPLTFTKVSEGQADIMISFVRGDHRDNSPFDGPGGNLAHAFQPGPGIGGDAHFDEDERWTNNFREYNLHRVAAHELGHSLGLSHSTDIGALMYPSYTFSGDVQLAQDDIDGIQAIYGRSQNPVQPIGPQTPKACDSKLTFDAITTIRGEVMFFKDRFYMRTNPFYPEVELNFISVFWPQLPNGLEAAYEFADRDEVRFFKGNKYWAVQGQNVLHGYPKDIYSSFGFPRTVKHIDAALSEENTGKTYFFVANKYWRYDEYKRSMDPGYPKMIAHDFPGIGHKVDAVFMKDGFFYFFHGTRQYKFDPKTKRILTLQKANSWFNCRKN

[2] = molecular target: Matrix metalloproteinase-9 (Homo sapiens, UniProt P14780); experiment: as §1
Collagenase 3 = Collagenase 3 (Homo sapiens, UniProt P45452); experiment: as §1, with “The fluorescence changes, resulting from the substrate cleavage, were detected using excitation at 340 nm and emission wavelength of 405 nm using a Wallac 1420 Microplate Reader.” left out

Chain of Matrix metalloproteinase-9 (P14780 whole entry): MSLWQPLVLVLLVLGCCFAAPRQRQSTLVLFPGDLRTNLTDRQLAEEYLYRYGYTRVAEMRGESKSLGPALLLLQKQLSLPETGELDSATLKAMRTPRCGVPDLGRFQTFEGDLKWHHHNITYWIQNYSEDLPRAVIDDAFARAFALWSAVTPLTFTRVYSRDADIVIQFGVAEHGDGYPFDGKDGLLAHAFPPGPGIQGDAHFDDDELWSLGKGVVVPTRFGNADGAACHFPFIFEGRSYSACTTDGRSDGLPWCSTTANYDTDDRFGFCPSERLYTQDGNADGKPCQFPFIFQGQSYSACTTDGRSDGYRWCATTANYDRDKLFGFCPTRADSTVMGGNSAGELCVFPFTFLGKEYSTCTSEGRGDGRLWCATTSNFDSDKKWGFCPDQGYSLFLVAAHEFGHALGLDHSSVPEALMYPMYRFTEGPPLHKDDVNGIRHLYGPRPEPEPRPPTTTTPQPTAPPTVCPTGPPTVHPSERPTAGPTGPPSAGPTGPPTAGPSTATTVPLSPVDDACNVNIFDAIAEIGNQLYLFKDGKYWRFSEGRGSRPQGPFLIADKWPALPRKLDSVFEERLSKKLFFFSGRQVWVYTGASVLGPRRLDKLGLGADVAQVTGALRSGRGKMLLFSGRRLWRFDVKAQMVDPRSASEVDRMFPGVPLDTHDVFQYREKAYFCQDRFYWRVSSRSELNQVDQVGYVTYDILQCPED
Chain of 72 kDa type IV collagenase (P08253 whole entry): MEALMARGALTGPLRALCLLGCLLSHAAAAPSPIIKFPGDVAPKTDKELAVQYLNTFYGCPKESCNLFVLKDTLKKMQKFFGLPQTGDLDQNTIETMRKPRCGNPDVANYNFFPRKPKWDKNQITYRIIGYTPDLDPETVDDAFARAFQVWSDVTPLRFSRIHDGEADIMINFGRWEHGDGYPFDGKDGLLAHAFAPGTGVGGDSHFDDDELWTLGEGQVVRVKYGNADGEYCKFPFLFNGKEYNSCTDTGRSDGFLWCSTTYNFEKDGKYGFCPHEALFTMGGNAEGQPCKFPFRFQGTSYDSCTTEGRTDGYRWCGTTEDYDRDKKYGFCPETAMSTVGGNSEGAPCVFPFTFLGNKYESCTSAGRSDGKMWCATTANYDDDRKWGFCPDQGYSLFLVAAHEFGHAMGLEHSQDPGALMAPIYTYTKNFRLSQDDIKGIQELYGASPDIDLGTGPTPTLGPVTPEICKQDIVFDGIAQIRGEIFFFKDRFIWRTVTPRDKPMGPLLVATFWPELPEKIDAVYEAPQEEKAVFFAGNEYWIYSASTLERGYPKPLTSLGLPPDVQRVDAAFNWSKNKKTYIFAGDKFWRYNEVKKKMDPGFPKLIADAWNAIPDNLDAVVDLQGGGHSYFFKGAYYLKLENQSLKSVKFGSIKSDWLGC

SMILES | IC50 [1] | IC50 (Interstitial collagenase) | IC50 [2] | IC50 (Collagenase 3)
CCOC(=O)c1csc(CN(Cc2ccc(F)cc2)Cc2ccc(OCc3ccccc3)cc2)n1 | > 500 µM | 280 µM | 140 µM | 27 µM
O=C(O)c1csc(CN(Cc2ccc(OCc3ccccc3)cc2)CC(c2ccccc2)c2ccccc2)n1 | 26 µM |  | 10 µM | 1.76 µM
